The text below walks through data of patent US11802133B2, “Heterocyclic compounds as monoacylglycerol lipase inhibitors” (Hoffmann-La Roche Inc., priority 2018, dated 2023).

This experiment has as its target MAGL (recombinant wild-type) (Homo sapiens (Human), UniProt Q99685). As to the kind of experiment: 4-NPA assay: MAGL inhibitory activity by hydrolysis of 4-nitrophenylacetate (absorbance at 405 nm). Type of experiment: biochemical. Conditions: measured in 4-NPA assay (footnote [a]); 1 nM MAGL, 300 μM 4-nitrophenylacetate. The procedure: This assay is hereinafter abbreviated “4-NPA assay”.
The plate was shaked for 1 min at 2000 rpm (Variomag Teleshake) and then incubated for 15 min at RT. […] The final concentrations in the assay were 1 nM MAGL and 300 μM 4-Nitrophenylacetate. […] A second measurement was then done after incubation for 80 min at RT. From the two measurements, the slope was calculated by subtracting the first from the second measurement.

A word on the IC50: it is the concentration that inhibits the measured activity by half.

MAGL (recombinant wild-type), sequence (Q99685 whole entry, species assumed): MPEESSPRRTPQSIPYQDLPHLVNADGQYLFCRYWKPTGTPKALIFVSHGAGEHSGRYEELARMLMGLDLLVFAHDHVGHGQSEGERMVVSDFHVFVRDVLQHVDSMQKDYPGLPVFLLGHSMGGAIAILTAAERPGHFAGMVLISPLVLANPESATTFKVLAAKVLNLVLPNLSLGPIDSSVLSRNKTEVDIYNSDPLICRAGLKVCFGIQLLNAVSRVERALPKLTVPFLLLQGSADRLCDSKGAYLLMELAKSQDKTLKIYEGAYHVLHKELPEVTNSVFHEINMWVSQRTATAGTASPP

Take `CC1C(OCc2ccc(C(F)(F)F)cc2)CN1C(=O)N1CC[C@@H]2OCC(=O)N[C@@H]2C1` (stereo partly drawn) [Example 105, (4aR,8aS)-6-[2-Methyl-3-[[4-(trifluoromethyl)phenyl]methoxy]azetidine-1-carbonyl]-4,4a,5,7,8,8a-hexahydropyrido[4,3-b][1,4]oxazin-3-one]: the IC50 turned out to be 285 nM.

As for `O=C1CO[C@H]2CCN(C(=O)N3CC(F)(COc4ccc(F)cc4Cl)C3)C[C@H]2N1` [Example 109], the IC50 worked out at 223 nM.

As to `O=C1CO[C@H]2CCN(C(=O)N3CC(OCc4ccc(C(F)(F)F)cc4F)(C(F)(F)F)C3)C[C@H]2N1` [Example 110], the half-maximal inhibitory concentration (IC50) worked out at 2180 nM.

`CC1(OCc2ccc(C(F)(F)F)cc2F)CN(C(=O)N2CC[C@@H]3OCC(=O)N[C@@H]3C2)C1` [Example 111]: the IC50 is 20 nM.

Consider `O=C1CO[C@H]2CCN(C(=O)N3CC(OCc4cc(C(F)(F)F)c(F)cc4F)C3)C[C@H]2N1` [Example 112], for which the IC50 is 12 nM.

For the molecule `O=C1CO[C@H]2CCN(C(=O)N3CC(OCc4cc(C(F)(F)F)ccc4F)C3)C[C@H]2N1` [Example 113], the IC50 amounted to 5 nM.

In the case of `O=C1CO[C@H]2CCN(C(=O)N3CC(OCc4ccc(C(F)(F)F)c(F)c4)C3)C[C@H]2N1` [Example 114], the IC50 is 5 nM.

As for `COc1cc(C(F)(F)F)ccc1COC1CN(C(=O)N2CC[C@@H]3OCC(=O)N[C@@H]3C2)C1` [Example 115], the IC50 is 3 nM.

Regarding `O=C1CO[C@H]2CCN(C(=O)N3CC(OCc4ccc(Cl)cc4C(F)(F)F)C3)C[C@H]2N1` [Example 116], the IC50 was found to be 4 nM.

For the molecule `CC1C(OCc2ccc(C(F)(F)F)cc2)CN1C(=O)N1CC[C@@H]2OCC(=O)N[C@@H]2C1` (stereo partly shown) [Example 117], the IC50 was 10 nM.
